Source: US20190084939A1, “ANALOGS OF FEXARAMINE AND METHODS OF MAKING AND USING” (Salk Institute for Biological Studies, priority 2014, published 2019)
Where two headings read alike, the source gives them in different places.

Target: T1, Human FXR full length (Homo sapiens, UniProt Q96RI1)
T1 construct: Human FXR full length and RXR full length was obtained from Ronald Evans' laboratory; expressed in transfected cells; host or cells: CV-1 cells
T1 sequence (Q96RI1 1-476 isoform Q96RI1-1): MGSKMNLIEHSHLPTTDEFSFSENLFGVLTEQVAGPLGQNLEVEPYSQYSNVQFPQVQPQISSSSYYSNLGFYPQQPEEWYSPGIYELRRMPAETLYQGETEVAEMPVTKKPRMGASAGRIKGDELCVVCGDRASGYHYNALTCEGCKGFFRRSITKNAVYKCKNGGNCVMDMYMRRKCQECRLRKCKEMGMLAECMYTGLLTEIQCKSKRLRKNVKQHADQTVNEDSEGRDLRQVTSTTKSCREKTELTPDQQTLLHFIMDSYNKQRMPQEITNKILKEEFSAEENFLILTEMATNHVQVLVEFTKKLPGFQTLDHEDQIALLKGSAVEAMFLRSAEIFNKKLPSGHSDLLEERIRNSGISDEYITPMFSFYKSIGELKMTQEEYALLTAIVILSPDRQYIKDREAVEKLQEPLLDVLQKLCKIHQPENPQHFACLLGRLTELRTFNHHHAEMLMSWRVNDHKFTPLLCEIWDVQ
T1 sequence (P19793 1-462 partner): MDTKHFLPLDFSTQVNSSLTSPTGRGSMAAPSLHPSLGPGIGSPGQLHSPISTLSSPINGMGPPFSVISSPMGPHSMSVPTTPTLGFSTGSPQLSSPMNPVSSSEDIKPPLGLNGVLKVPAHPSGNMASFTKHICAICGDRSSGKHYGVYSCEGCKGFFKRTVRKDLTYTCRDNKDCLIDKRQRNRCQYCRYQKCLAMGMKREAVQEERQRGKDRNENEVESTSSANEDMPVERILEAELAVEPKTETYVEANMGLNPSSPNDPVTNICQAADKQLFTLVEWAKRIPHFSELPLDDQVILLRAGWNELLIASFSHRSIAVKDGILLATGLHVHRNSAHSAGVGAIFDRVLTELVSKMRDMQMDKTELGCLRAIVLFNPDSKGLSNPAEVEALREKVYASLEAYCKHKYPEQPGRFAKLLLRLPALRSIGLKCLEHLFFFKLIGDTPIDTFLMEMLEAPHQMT
Assay: FXR activity screen, luciferase reporter in transfected CV-1 cells
Assay type: cell-based
Experimental: CV-1 cells were grown in DMEM+10% charcoal stripped FCS. Cells were seeded into 384-well plates the day before transfection to give a confluency of 50-80% at transfection. A total of […] DNA containing 0.32 micrograms pCMX-hFXRfl, 0.32 micrograms pCMX-hRXRfl, 0.1 micrograms pCMXβGal, 0.08 micrograms pGLFXRE reporter and 0.02 micrograms pCMX empty vector was transfected per well using FuGene transfection reagent according to the manufacturer's instructions (Roche). Cells were allowed to express protein for 48 hours followed by addition of compound.
Human FXR full length and RXR full length was obtained from Ronald Evans' laboratory and PCR amplification of the hFXR cDNA and the hRXR cDNA was performed. The amplified cDNAs was cloned into the vector pCMX generating the plasmids pCMX-hFXRfl and pCMX-hRXRfl. Ensuing fusions were verified by sequencing. The pCMXMH2004 luciferase reporter contains multiple copies of the GAL4 DNA response element under a minimal eukaryotic promoter (Hollenberg and Evans, 1988). pCMXβGal was generated in the Evans laboratory, Salk Institute.
All compounds were dissolved in DMSO and diluted 1:1000 upon addition to the cells. Compounds were tested in quadruple in concentrations ranging from 0.001 to 100 μM. Cells were treated with compound for 24 hours followed by luciferase assay. Each compound was tested in at least two separate experiments.
Medium including test compound was aspirated and washed with PBS. 50 μL PBS including 1 mM Mg^2+ and Ca^2+ were then added to each well. The luciferase assay was performed using the LucLite kit according to the manufacturer's instructions (Packard Instruments). Light emission was quantified by counting on a Perkin Elmer Envision reader. To measure […] activity 25 μL supernatant from each transfection lysate was transferred to a new 384 microplate. Beta-galactosidase assays were performed in the microwell plates using a kit from Promega and read in a Perkin Elmer Envision reader. The beta-galactosidase data were used to normalize (transfection efficiency, cell growth etc.) the luciferase data.
The activity of a compound is calculated as fold induction compared to an untreated sample. For each compound the efficacy (maximal activity) is given as a relative activity compared to Fexaramine, a FXR agonist. The EC50 is the concentration giving 50% of maximal observed activity. EC50 values were calculated via non-linear regression using GraphPad PRISM (GraphPad Software, San Diego, Calif.).

[1] = first round, CV-1 cells, 24 hours, read-out: 1st RND EC50
[2] = second round, CV-1 cells, 24 hours, read-out: 2nd RND EC50

| Compound | EC50 [1] | EC50 [2] | EC50 (retest, read-out: EC50 (retested)) |
| --- | --- | --- | --- |
| COC(=O)/C=C/c1cccc(N(Cc2cccc3ccc(N(C)C)cc23)C(=O)C2CCCCC2)c1 [NSSK00001] | 68.6 nM | 55.8 nM |  |
| COC(=O)/C=C/c1cccc(N(Cc2cccc3ccc(N(C)C)c(F)c23)C(=O)C2CCCCC2)c1 [NSSK00002] | 96.8 nM | 65.9 nM |  |
| COC(=O)/C=C/c1cccc(N(Cc2ccc(-c3ccc4c(cnn4C)c3)cc2)C(=O)C2CCCCC2)c1 [NSSK00004] | 237 nM | 266 nM |  |
| COC(=O)/C=C/c1cncc(N(Cc2cccc3cc4cnn(C)c4cc23)C(=O)C2CCCCC2)c1 [NSSK00005] | 1820 nM | 2100 nM |  |
| COC(=O)/C=C/c1cccc(N(Cc2cccc3cc4cnn(C)c4c(F)c23)C(=O)C2CCCCC2)c1 [NSSK00006] | 273 nM | 243 nM |  |
| COC(=O)/C=C/c1cc(F)cc(N(Cc2cccc3cc4cnn(C)c4c(F)c23)C(=O)C2CCCCC2)c1 [NSSK00007] | 473 nM | 169 nM |  |
| COC(=O)/C=C/c1cncc(N(Cc2cccc3cc4cnn(C)c4c(F)c23)C(=O)C2CCCCC2)c1 [NSSK00008] | 2000 nM | 1400 nM |  |
| COC(=O)/C=C/c1cncc(N(Cc2cccc3cc4cnn(C)c4c(Cl)c23)C(=O)C2CCCCC2)c1 [NSSK00009] | 3300 nM | 4900 nM |  |
| [2H]C(c1ccc(-c2ccc3c(cnn3C)c2)cc1F)N(C(=O)C1CCCCC1)c1cc(F)cc(/C=C/C(=O)OC)c1 (centres unmarked) [NSSK00011] | 289 nM | 379 nM |  |
| [2H]C(c1ccc(-c2ccc3c(cnn3C)c2)cc1F)N(C(=O)C1CCCCC1)c1cncc(/C=C/C(=O)OC)c1 (centres unmarked) [NSSK00012] | 1200 nM | 1200 nM |  |
| [2H]C(c1ccc(-c2ccc3c(cnn3C)c2)cc1Cl)N(C(=O)[C@@H]1C[C@@H]2CC[C@H]1C2)c1cccc(/C=C/C(=O)OC)c1 (some centres unmarked) [NSSK00013] | 390 nM | 430 nM |  |
| [2H]C(c1ccc(-c2ccc3c(cnn3C)c2)cc1Cl)N(C(=O)C1CCCCC1)c1cccc(/C=C/C(=O)OC)c1 (centres unmarked) [NSSK00014] | 346 nM | 475 nM |  |
| [2H]C(c1ccc(-c2ccc3c(cnn3C)c2)cc1Cl)N(C(=O)C1CCCCC1)c1cc(F)cc(/C=C/C(=O)OC)c1 (centres unmarked) [NSSK00016] | 285 nM | 377 nM |  |
| COC(=O)/C=C/c1cccc(N(Cc2ccc(-c3ccc4c(cnn4C)c3)cc2)C(=O)[C@H]2C[C@H]3CC[C@@H]2C3)c1 [NSSK00017] | 756 nM | 500 nM |  |
| COC(=O)/C=C/c1cncc(N(Cc2cccc3cc4cnn(C)c4cc23)C(=O)[C@@H]2C[C@@H]3CC[C@H]2C3)c1 [NSSK00018] | 380 nM | 415 nM |  |
| COC(=O)/C=C/c1cccc(N(Cc2cccc3cc4cnn(C)c4c(F)c23)C(=O)C2C[C@H]3CC[C@@H]2C3)c1 (some centres unmarked) [NSSK00019] | 923 nM | 554 nM |  |
| COC(=O)/C=C/c1cc(F)cc(N(Cc2cccc3cc4cnn(C)c4c(F)c23)C(=O)C2C[C@H]3CC[C@@H]2C3)c1 (some centres unmarked) [NSSK00020] | 743 nM | 464 nM |  |
| COC(=O)/C=C/c1cncc(N(Cc2cccc3cc4cnn(C)c4c(Cl)c23)C(=O)C2C[C@H]3CC[C@@H]2C3)c1 (some centres unmarked) [NSSK00022] | 3200 nM | 2700 nM |  |
| [2H]C(c1ccc(-c2ccc(N(C)C)cc2)cc1)N(C(=O)C1CCCCC1)c1cc(F)cc(/C=C/C(=O)OC)c1 (centres unmarked) [NSSK00025] | 150 nM | 168 nM |  |

| Compound | EC50 [1] | EC50 [2] | EC50 (retest, read-out: EC50 (retested)) |
| --- | --- | --- | --- |
| [2H]C(c1ccc(-c2ccc(N(C)C)cc2)cc1)N(C(=O)[C@@H]1C[C@@H]2CC[C@H]1C2)c1cncc(/C=C/C(=O)OC)c1 (some centres unmarked) [NSSK00026] | 587 nM | 910 nM |  |
| [2H]C(c1ccc(-c2ccc(N(C)C)cc2)cc1F)N(C(=O)C1CCCCC1)c1cccc(/C=C/C(=O)OC)c1 (centres unmarked) [NSSK00027, methyl (E)-3-(3-(N-((4′-(dimethylamino)-3-fluoro-[1,1′-biphenyl]-4-yl)methyl-d)cyclohexanecarboxamido)phenyl)acrylate] | 48.9 nM | 46.6 nM | 118 nM |
| [2H]C(c1ccc(-c2ccc(N(C)C)cc2)cc1F)N(C(=O)[C@@H]1C[C@@H]2CC[C@H]1C2)c1cncc(/C=C/C(=O)OC)c1 (some centres unmarked) [NSSK00029] | 605 nM | 510 nM |  |
| [2H]C(c1ccc(-c2ccc(N(C)C)cc2)cc1F)N(C(=O)C1CCCCC1)c1cncc(/C=C/C(=O)OC)c1 (centres unmarked) [NSSK00030] | 656 nM | 375 nM |  |
| [2H]C(c1ccc(-c2ccc(N(C)C)cc2)cc1Cl)N(C(=O)C1CCCCC1)c1cccc(/C=C/C(=O)OC)c1 (centres unmarked) [NSSK00031] | 366 nM | 249 nM |  |
| [2H]C(c1ccc(-c2ccc(N(C)C)cc2)cc1Cl)N(C(=O)C1CCCCC1)c1cncc(/C=C/C(=O)OC)c1 (centres unmarked) [NSSK00032] | 2600 nM | 2900 nM |  |
| [2H]C(c1ccc(-c2ccc3c(cnn3C)c2)cc1)N(C(=O)C1CCCCC1)c1cccc(/C=C/C(=O)OC)c1 (centres unmarked) [NSSK00033] | 169 nM | 254 nM |  |
| [2H]C(c1ccc(-c2ccc3c(cnn3C)c2)cc1)N(C(=O)C1CCCCC1)c1cncc(/C=C/C(=O)OC)c1 (centres unmarked) [NSSK00034] | 2200 nM | 2680 nM |  |
| COC(=O)/C=C/c1cccc(N(Cc2ccc(-c3ccc4c(cnn4C)c3)cc2)C(=O)C2CCN(C)CC2)c1 [NSSK00035] | 3300 nM | 4490 nM |  |
| COC(=O)/C=C/c1cccc(N(Cc2cccc3cc4cnn(C)c4c(F)c23)C(=O)C2CCN(C)CC2)c1 [NSSK00036] | 18600 nM | 4900 nM |  |
| [2H]C(c1ccc(-c2ccc3c(cnn3C)c2)cc1F)N(C(=O)c1ccccc1)c1cccc(/C=C/C(=O)OC)c1 (centres unmarked) [NSSK00038] | 1370 nM | 1900 nM |  |
| [2H]C(c1ccc(-c2ccc3c(cnn3C)c2)cc1F)N(C(=O)c1ccccc1)c1cc(F)cc(/C=C/C(=O)OC)c1 (centres unmarked) [NSSK00039] | 1550 nM | 870 nM |  |
| [2H]C(c1ccc(-c2ccc3c(cnn3C)c2)cc1Cl)N(C(=O)c1ccccc1)c1cc(F)cc(/C=C/C(=O)OC)c1 (centres unmarked) [NSSK00041] | 1100 nM | 1200 nM |  |
| COC(=O)/C=C/c1cccc(N(Cc2ccc(-c3ccc(N(C)C)cc3)cc2)C(=O)[C@@H]2C[C@@H]3CC[C@H]2C3)c1 [NSSK00042] | 135 nM | 620 nM |  |
| COC(=O)/C=C/c1cccc(N(Cc2ccc(-c3ccc(N(C)C)cc3)cc2F)C(=O)[C@@H]2C[C@@H]3CC[C@H]2C3)c1 [NSSK00043] | 80.9 nM | 80.7 nM |  |
| COC(=O)/C=C/c1cc(F)cc(N(Cc2ccc(-c3ccc(N(C)C)cc3)cc2F)C(=O)[C@@H]2C[C@@H]3CC[C@H]2C3)c1 [NSSK00044] | 149 nM | 144 nM |  |
| [2H]C(c1ccc(-c2ccc(N(C)C)cc2)cc1Cl)N(C(=O)[C@@H]1C[C@@H]2CC[C@H]1C2)c1cccc(/C=C/C(=O)OC)c1 (some centres unmarked) [NSSK00045] | 334 nM | 334 nM |  |
| COC(=O)/C=C/c1cccc(N(Cc2ccc(-c3ccc4c(cnn4C)c3)cc2Cl)C(=O)[C@@H]2C[C@@H]3CC[C@H]2C3)c1 [NSSK00046] | 639 nM | 519 nM |  |
| COC(=O)/C=C/c1cc(F)cc(N(Cc2ccc(-c3ccc4c(cnn4C)c3)cc2Cl)C(=O)[C@@H]2C[C@@H]3CC[C@H]2C3)c1 [NSSK00047] | 355 nM | 403 nM |  |
